Assay results published in patent US20230293519A1, “INTEGRIN INHIBITORS AND USES THEREOF IN COMBINATION WITH OTHER AGENTS” (Pliant Therapeutics, Inc., priority 2021, published 2023).

Legend:
[1] = test system: lung Col1a1 expression; test: Precision cut lung slices from human IPF explants, 3 days; assay type: cell-based; details: 3G9 ≥400 ng/mL, compound 5 179 nM, ALK5 inhibitor 1 µM
Excerpt: Explanted lung tissue was obtained from human IPF subjects and inflated with agarose as described in the preceding examples. Biopsy cores were obtained from the agarose-inflated lung tissue. The biopsy cores were subjected to precision slicing to obtain several hundred µm thick. Individual slices were distributed in a multiwell culture plate and cultured for 3 days under control (DMSO) and test compound conditions. The viability of the slices over the course of culturing was confirmed by WST-1 assay of mitochondrial activity.

[2] = test system: Type I Collagen gene Col1a1 expression; test: Precision cut lung slices of mice under acute bleomycin exposure; assay type: cell-based, mouse
Experimental: Mice (C57BL/6) were administered 3 U/kg of bleomycin (Teva Pharmaceuticals; North Wales, PA) on day 0 via oropharyngeal aspiration while under anesthesia. On day 14, precision cut lung slices were obtained. Following euthanization, 2% low gelling temp agarose was injected into the mouse lungs via the trachea. […] The lobes were then subjected to precision slicing to obtain samples for culture using a microtome (Compresstome VF-300-0Z, Precisionary; Greenville, NC). Individual slices were distributed in a multiwell culture plate and cultured for 3 days under control (DMSO) and test compound conditions.

[3] = test system: lung Col1a1 expression; test: Precision cut lung slices of mice under chronic bleomycin exposure (vs pirfenidone and nintedanib); assay type: cell-based, mouse; details: slices cultured 7 days; nintedanib and pirfenidone at 10x therapeutic concentrations
Experimental: (§1) Mice (C57BL/6) were administered 3 U/kg of bleomycin (Teva Pharmaceuticals; North Wales, PA) on Day 0 and 1 U/kg of bleomycin on days 14, 28, 42 and 56 via oropharyngeal aspiration while under anesthesia. At day 70, 14 days following the final bleomycin insult, precision cut lung slices were obtained. Following euthanization, 2% low gelling temp agarose was injected into the mouse lungs via the trachea. […] The lobes were then subjected to precision slicing to obtain samples for culture using a microtome (Compresstome VF-300-0Z, Precisionary; Greenville, NC). Individual slices were distributed in a multiwell culture plate and cultured for 7 days under control (DMSO) and test compound conditions. The viability of the slices over the course of culturing was confirmed by WST-1 assay of mitochondrial activity.
During the culture period, slices in the control group were treated with DMSO and slices in the test group were treated with a DMSO solution of one of: compound 5; nintedanib; pirfenidone; a combination of nintedanib and compound 5; a combination of pirfenidone and compound 5; or the small molecule ALK5 inhibitor. Compound 5 was […] effective to equal or exceed its respective IC50 values at αvβ6 and αvβ1. The small molecule ALK5 inhibitor was analyzed at 10x its reported IC50 value. Nintendanib and pirfenidone were analyzed at concentrations 10x their reported therapeutic concentrations.

[4] = test system: lung Col1a1 expression; test: Precision cut lung slices of mice under chronic bleomycin exposure (single vs dual integrin inhibition); assay type: cell-based, mouse; details: slices cultured 7 days
Experimental: as §1, with “after” for “following”, “The viability of the slices over the course of culturing was confirmed by WST-1 assay of mitochondrial activity.” left out
During the culture period, slices in the control group were treated with DMSO and slices in the test group were treated with a DMSO solution of one of: the selective antibody αvβ6 inhibitor 3G9; the αvβ1-selective small molecule inhibitor; a combination of the selective antibody αvβ6 inhibitor 3G9 and the αvβ1-selective small molecule inhibitor; compound 5; and the small molecule ALK5 inhibitor. The selective αvβ1 and αvβ6 integrin inhibitors were analyzed at ≥ their respective IC90 concentrations for inhibition of TGF-beta activation. […] The small molecule ALK5 inhibitor was analyzed at 10x its reported IC50 value.

[5] = test system: COL1A1 expression; test: PCLS from human IPF lung tissue, 7 days: COL1A1 expression; assay type: cell-based; details: Compound 5 200 nM, nintedanib 75 nM, pirfenidone 50 µM, 5-7 IPF lungs
Experimental: PCLS from 5-7 idopathic pulmonary fibrosis (IPF) lung tissue samples were cultured for seven days with one of: DMSO; Compound 5 at 200 nM; nintedanib at 75 nM; pirfenidone at 50 µm; a combination of Compound 5 at 200 nM and nintedanib at 75 nM; a combination of Compound 5 at 200 nM and pirfenidone at 50 µm; or an Alk5 inhibitor at 1 µm. […] FIG. 6D is a bar graph showing relative expression of COL1A1 in precision cut lung slices (PCLS) from idopathic pulmonary fibrosis (IPF) lung tissue upon exposure to Comopund 5, clinical standard of care compounds nintedanib (Nin) and pirfenidone (Pirf), and an ALK5 inhibitor, all versus DMSO control.
PCLS from a single IPF lung tissue sample were cultured for seven days with Compound 5 at concentrations of 200 pM, 2 nM, 60 nM, 200 nM, and 1 µM, along with 0.1% DMSO control and an Alk5 inhibitor at 1 µM. […] COL1A1 expression is also graphed for the PCLS in the presence of 0.1% DMSO control, and an Alk5 inhibitor at 1 µM.

[6] = test system: fibrosis-related gene expression in explanted human lung tissue from patients with idiopathic pulmonary fibrosis; test: nCounter Fibrosis Panel gene expression in precision cut lung slices from IPF explants; assay type: cell-based; details: IPF PCLS, 7 days, vs DMSO
Excerpt: Fibrosis-related gene expression in explanted human lung tissue from patients with idiopathic pulmonary fibrosis was examined in order to determine what impact combining Compound 5 treatment with standard-of-care drugs nintedanib or pirfenidone, has on the expression of such genes.
Samples used for this analysis are a subset (n = 4 of 7) of the lungs previously reported on in Decaris et al., Respir Res (2021) 22:265 (FIGS. 6 A and B). Briefly, tissue samples from patients with IPF were acquired at the time of lung transplantation. Precision cut lung slices were generated from the explants and cultured for 7 days in the presence of inhibitors (Compound 5, nintedanib, pirfenidone) at clinically relevant concentrations or vehicle (DMSO). Treated slices were lysed in mRNA-compatible buffer for gene expression analysis. For this study, the lysate from n = 6 slices per treatment per lung were pooled for analysis using the nCounter Fibrosis Panel (Nanostring) on the nCounter Max analyzer (Nanostring). This commercially available panel of 770 genes includes genes related to initial tissue damage response, chronic inflammation, proliferation of pro-fibrotic cells, and tissue modification leading to fibrotic disease. Technical quality control and normalization of raw Nanostring mRNA count data was performed using an R framework developed by Bhattacharya et al. (Bhattacharya A. et al., Brief Bioinform. 2021 May 20;22(3):bbaa163). The R packages limma (see URL www.bioconductor.org/packages/release/bioc/html/limma.html) and voom (Law, C.W. et al., Genome Biol. 2014 Feb 3;15(2):R29) were used to detect differentially expressed genes. Benjamini-Hochberg False Discovery Rate (FDR = 5%) was used to adjust p-values for multiple comparisons.

Cc1cccc(-c2n[nH]cc2-c2ccc(F)c(-c3cnn(CCO)c3)c2)n1 [small molecule ALK5 inhibitor, 4-[2-Fluoro-5-[3-(6-methyl-2-pyridinyl)-1H-pyrazol-4-yl]phenyl]-1H-pyrazole-1-ethanol, reference compound]
lung Col1a1 expression vs DMSO control [1]: substantial, statistically significant
Type I Collagen gene Col1a1 expression vs DMSO control ([2]; slices cultured 3 days, integrin inhibitors at IC50, pan-αv and ALK5 inhibitors at 10x IC50): greatest decrease
lung Col1a1 expression vs DMSO control [3]: substantial, statistically significant
lung Col1a1 expression vs DMSO control [4]: greatest decrease

Cc1ccc(=O)n(-c2ccccc2)c1 [pirfenidone, 5-methyl-1phenyl-2-1(H)-pyridone]
reduction of COL1A1 expression [5]: did not significantly reduce
fold increase in concentration over compound 5 needed to reduce lung slice Col1a1 expression by 50% ([2]; acute bleomycin injured lung slices): 3,940 fold
lung Col1a1 expression vs DMSO control [3]: slight increase
% Reduction of CDH2 expression [6]: -7.12%
% Reduction of COL1A1 expression [6]: 8.58%
% Reduction of COL5A3 expression [6]: 23.95%
% Reduction of ITGAS expression [6]: 26.21%
% Reduction of THBS2 expression [6]: 21.20%
logFC of ACACA expression [6]: 0.4392
logFC of ACVRL1 expression [6]: -0.7278
logFC of ALDH7A1 expression [6]: 0.6119
logFC of C6 expression [6]: 1.475
logFC of CD34 expression [6]: -0.8356
logFC of CDH5 expression [6]: -1.0568
logFC of CFTR expression [6]: 1.189
logFC of COL4A1 expression [6]: -0.7024
logFC of COL7A1 expression [6]: 0.6703
logFC of COL14A1 expression [6]: -0.7785
logFC of COX4I2 expression [6]: -0.7471
logFC of CXCL2 expression [6]: 0.778
logFC of CXCL12 expression [6]: -0.5918
logFC of CXCR4 expression [6]: -0.8852
logFC of EGFR expression [6]: 0.4764
logFC of F11R expression [6]: 0.5803
logFC of FGF19 expression [6]: -1.14
logFC of GAS1 expression [6]: -0.6419
logFC of GPC4 expression [6]: 0.4613
logFC of GREM1 expression [6]: -0.7447
logFC of HADH expression [6]: 0.4377
logFC of HAVCR1 expression [6]: -0.7313
logFC of ICAM1 expression [6]: 0.4322
logFC of IFNG expression [6]: -0.5853
logFC of KLF5 expression [6]: 0.7343
logFC of KNG1 expression [6]: -1.1
logFC of LYN expression [6]: 0.4785
logFC of MET expression [6]: 1.096
logFC of MMP7 expression [6]: 1.413
logFC of MMRN1 expression [6]: -0.9784
logFC of NOTCH4 expression [6]: -0.7164
logFC of OCLN expression [6]: 0.5956
logFC of PDGFRB expression [6]: -0.7514
logFC of PECAM1 expression [6]: -0.9354
logFC of PSENEN expression [6]: 0.4784
logFC of PTGS2 expression [6]: 0.9466
logFC of RELN expression [6]: -0.8283
logFC of SAA1 expression [6]: 1.653
logFC of TEK expression [6]: -0.8124
logFC of WWC1 expression [6]: 0.8127
